From ChEMBL document CHEMBL3045147, “Synthesis and evaluation of a series of novel imidazolidinone analogues of 6-aminoflavone as anticancer and anti-inflammatory agents” (Med Chem Res, 2013)
Values after ≈ are worked out from the molar mass of the structure shown. Active and inactive are the calls of the source. The rule behind the calls is not given here.

Assays:
[1] = system: HeLa; experiment: Cell cycle arrest in Homo sapiens (human) HeLa cells assessed as accumulation of cells at Sub-G0 phase after 48 hr by FACS analysis (reference value: 1.15%); assay type: functional
[2] = system: HeLa; experiment: Cell cycle arrest in Homo sapiens (human) HeLa cells assessed as accumulation of cells at G2/M phase after 48 hr by FACS analysis (reference value: 18.65%); assay type: functional
[3] = system: HeLa; experiment: Cell cycle arrest in Homo sapiens (human) HeLa cells assessed as accumulation of cells at S phase after 48 hr by FACS analysis (reference value: 6.34%); assay type: functional
[4] = system: HeLa; experiment: Cell cycle arrest in Homo sapiens (human) HeLa cells assessed as accumulation of cells at G0/G1 phase after 48 hr by FACS analysis (reference value: 74.27%); assay type: functional
[5] = system: MDA-MB-435; experiment: Cytotoxicity against Homo sapiens (human) MDA-MB-435 cells assessed as inhibition of cell viability by SRB assay; assay type: functional, cell-based
[6] = system: MDA-MB-435; experiment: Cytotoxicity against Homo sapiens (human) MDA-MB-435 cells assessed as inhibition of cell viability by MTT assay; assay type: functional, cell-based
[7] = system: Rattus norvegicus; experiment: Anti-inflammatory activity in Wistar Rattus norvegicus (rat) assessed as inhibition of carrageenan-induced paw edema at 50 mg/kg, po measured after 3 hr; assay type: functional
[8] = system: Rattus norvegicus; experiment: Anti-inflammatory activity in Wistar Rattus norvegicus (rat) assessed as inhibition of carrageenan-induced paw edema at 100 mg/kg/day, po measured after 3 hr; assay type: functional
[9] = system: HeLa; experiment: Cytotoxicity against Homo sapiens (human) HeLa cells assessed as inhibition of cell viability by SRB assay; assay type: functional, cell-based
[10] = system: HeLa; experiment: Cytotoxicity against Homo sapiens (human) HeLa cells assessed as inhibition of cell viability by MTT assay; assay type: functional, cell-based
[11] = Anticancer activity against Mus musculus (mouse) EAC cells xenografted in albino mouse assessed as increase in body weight at 100 mg/kg/day administered for 9 days measured on day 15 (reference value: 58.81 +/-2.67%); assay type: functional, Ehrlich
[12] = Anticancer activity against Mus musculus (mouse) EAC cells xenografted in albino mouse assessed as increase in body weight at 100 mg/kg/day administered for 9 days measured on day 12 (reference value: 44.42 +/-2.82%); assay type: functional, Ehrlich
[13] = Anticancer activity against Mus musculus (mouse) EAC cells xenografted in albino mouse assessed as increase in body weight at 100 mg/kg/day administered for 9 days measured on day 9 (reference value: 34.31 +/-1.06%); assay type: functional, Ehrlich
[14] = Anticancer activity against Mus musculus (mouse) EAC cells xenografted in albino mouse assessed as increase in body weight at 100 mg/kg/day administered for 9 days measured on day 6 (reference value: 16.31 +/-0.48%); assay type: functional, Ehrlich
[15] = Anticancer activity against Mus musculus (mouse) EAC cells xenografted in albino mouse assessed as increase in body weight at 100 mg/kg/day administered for 9 days measured on day 3 (reference value: 4.56 +/-0.52%); assay type: functional, Ehrlich
[16] = system: Ehrlich; experiment: Anticancer activity against Mus musculus (mouse) EAC cells xenografted in albino mouse assessed as decrease in ascites fluid volume at 50 to 100 mg/kg/day administered for 9 days; assay type: functional, organism-based
[17] = Anticancer activity against Mus musculus (mouse) EAC cells xenografted in albino mouse assessed as increase in median life span at 50 mg/kg/day administered for 9 days; assay type: functional, Ehrlich
[18] = Anticancer activity against Mus musculus (mouse) EAC cells xenografted in albino mouse assessed as median survival time at 50 mg/kg/day administered for 9 days (reference value: 17 days); assay type: functional, Ehrlich
[19] = Anticancer activity against Mus musculus (mouse) EAC cells xenografted in albino mouse assessed as increase in median life span at 100 mg/kg/day administered for 9 days; assay type: functional, Ehrlich
[20] = Anticancer activity against Mus musculus (mouse) EAC cells xenografted in albino mouse assessed as median survival time at 100 mg/kg/day administered for 9 days (reference value: 17 days); assay type: functional, Ehrlich
[21] = Anticancer activity against Mus musculus (mouse) EAC cells xenografted in albino mouse assessed as increase in mean life span at 50 mg/kg/day administered for 9 days; assay type: functional, Ehrlich
[22] = Anticancer activity against Mus musculus (mouse) EAC cells xenografted in albino mouse assessed as mean survival time at 50 mg/kg/day administered for 9 days (reference value: 17.33 +/-0.21 days); assay type: functional, Ehrlich
[23] = Anticancer activity against Mus musculus (mouse) EAC cells xenografted in albino mouse assessed as increase in mean life span at 100 mg/kg/day administered for 9 days; assay type: functional, Ehrlich
[24] = Anticancer activity against Mus musculus (mouse) EAC cells xenografted in albino mouse assessed as mean survival time at 100 mg/kg/day administered for 9 days (reference value: 17.33 +/-0.21 days); assay type: functional, Ehrlich
[25] = system: HeLa; experiment: Cytotoxicity against Homo sapiens (human) HeLa cells assessed as morphological changes after 24 hr by microscopic analysis; assay type: functional, cell-based
[26] = system: HeLa; experiment: Ratio of 6-aminoflavone IC50 to compound IC50 for Homo sapiens (human) HeLa cells; assay type: functional
[27] = system: MDA-MB-435; experiment: Ratio of 6-aminoflavone IC50 to compound IC50 for Homo sapiens (human) MDA-MB-435 cells; assay type: functional

## COc1cccc2c1C(=O)c1c(O)c3c(c(O)c1C2=O)C[C@@](O)(C(=O)CO)C[C@@H]3O[C@H]1C[C@H](N)[C@H](O)[C@H](C)O1.Cl [DOXORUBICIN HYDROCHLORIDE]
[1]
  Activity: 2.22%
[2]
  Activity: 76.76%
[3]
  Activity: 4.01%
[4]
  Activity: 16.62%
[5]
  IC50: 0.93 µg/mL
[6]
  IC50: 0.77 µg/mL

## CC(C)Cc1ccc(C(C)C(=O)O)cc1 (stereo not drawn) [IBUPROFEN]
[7]
  inhibition in vivo at 50 mg/kg: 67.1%

## Nc1ccc2oc(-c3ccccc3)cc(=O)c2c1 [6-AMINOFLAVONE]
[8]
  inhibition in vivo at 100 mg/kg/day: 24.2%
[5]
  IC50: 78.4 µg/mL (≈ 330 µM)
[9]
  IC50: 63.6 µg/mL (≈ 268 µM)
[6]
  IC50: 59.5 µg/mL (≈ 251 µM)
[10]
  IC50: 55.8 µg/mL (≈ 235 µM)

## O=C1/C(=C\c2ccc(Cl)c(Cl)c2)N=C(c2ccccc2)N1c1ccc2oc(-c3ccccc3)cc(=O)c2c1
[8]
  inhibition in vivo at 100 mg/kg/day: 36.5%
[5]
  IC50: 20.1 µg/mL (≈ 37.5 µM)
[9]
  IC50: 16 µg/mL (≈ 29.7 µM)
[6]
  IC50: 16.9 µg/mL (≈ 31.4 µM)
[10]
  IC50: 15.2 µg/mL (≈ 28.3 µM)

## O=C1/C(=C\c2ccccc2)N=C(c2ccccc2)N1c1ccc2oc(-c3ccccc3)cc(=O)c2c1
[8]
  inhibition in vivo at 100 mg/kg/day: 38.2%
[5]
  IC50: 26.4 µg/mL (≈ 56.3 µM)
[9]
  IC50: 20.9 µg/mL (≈ 44.6 µM)
[6]
  IC50: 24.3 µg/mL (≈ 51.8 µM)
[10]
  IC50: 20.1 µg/mL (≈ 42.9 µM)

## COc1ccc(/C=C2/N=C(c3ccccc3)N(c3ccc4oc(-c5ccccc5)cc(=O)c4c3)C2=O)cc1OC
[8]
  inhibition in vivo at 100 mg/kg/day: 49.8%
[11]
  Activity: 19.99%
[12]
  Activity: 17.47%
[13]
  Activity: 13.63%
[14]
  Activity: 9.39%
[15]
  Activity: 3.58%
[16]
  inhibition: Active
[17]
  Activity: 32.35%
[18]
  MST: 22.5 days
[19]
  Activity: 35.29%
[20]
  MST: 23 days
[21]
  Activity: 28.87%
[22]
  MST: 22.33 days
[23]
  Activity: 32.72%
[24]
  MST: 23 days
[1]
  Activity: 21.63%
[2]
  Activity: 28.37%
[3]
  Activity: 14.1%
[4]
  Activity: 36.8%
[25]
  Activity: Active
[26]
  Ratio IC50: 5
[27]
  Ratio IC50: 5
[5]
  IC50: 11.9 µg/mL (≈ 22.6 µM)
[9]
  IC50: 11.1 µg/mL (≈ 21 µM)
[6]
  IC50: 10.8 µg/mL (≈ 20.4 µM)
[10]
  IC50: 9.87 µg/mL (≈ 18.7 µM)

## O=C1/C(=C\c2ccc(O)cc2)N=C(c2ccccc2)N1c1ccc2oc(-c3ccccc3)cc(=O)c2c1
[8]
  inhibition in vivo at 100 mg/kg/day: 47.6%
[5]
  IC50: 21.4 µg/mL (≈ 44.1 µM)
[9]
  IC50: 18.9 µg/mL (≈ 39 µM)
[6]
  IC50: 18 µg/mL (≈ 37.2 µM)
[10]
  IC50: 16.4 µg/mL (≈ 33.8 µM)

## COc1ccc(/C=C2/N=C(c3ccccc3)N(c3ccc4oc(-c5ccccc5)cc(=O)c4c3)C2=O)cc1
[8]
  inhibition in vivo at 100 mg/kg/day: 45.1%
[5]
  IC50: 21.7 µg/mL (≈ 43.6 µM)
[9]
  IC50: 17.6 µg/mL (≈ 35.3 µM)
[6]
  IC50: 18.5 µg/mL (≈ 37.1 µM)
[10]
  IC50: 14.2 µg/mL (≈ 28.6 µM)
